Where two headings read alike, the source gives them in different places.
What was measured:
Vps34 = Vps34 (Homo sapiens, UniProt Q8NEB9); experiment: Kinase Glo Luminescent Kinase Assay (Kglo), assay C; assay type: biochemical; conditions: read-out: Assay C VPS34 IC50
PI 3-kinase beta [1] = biological target: T1, PI 3-kinase beta (Homo sapiens, UniProt P42338); experiment: Kinase Glo Luminescent Kinase Assay (Kglo), assay B; assay type: biochemical; conditions: read-out: Assay B PI3Kβ IC50
PI 3-kinase gamma [2] = biological target: T2, PI 3-kinase gamma (Homo sapiens, UniProt P48736); experiment: Cellular U937 AKT assay K2 (HTRF); assay type: cell-based; conditions: U937 cells, K2 format; read-out: Assay K2 PI3Kγ IC50
Procedure: In assays K1 and K2, the compounds were tested for their ability to inhibit the production of phosphorylated AKT (Protein Kinase B) generated in a PI 3-kinase gamma isoform-dependent process in a U937 human cell line.
Cellular U937 AKT Assay for PI 3-Kinase Gamma (K2)
U937 cells are split every 3-4 days: 5×10^6 cells/flask (175 cm^2) in 40 ml.
Semi-automated preparation of cell lysates: Cells were resuspended in HBSS, seeded (200′000 cells/well/60 μl) into a 384-well plate and incubated in a humidified 37° C., 5% CO2 incubator for 1.5 hours. The compounds were diluted with HBSS and 40 μl were added to the starved cells (except for wells 24 I-P). […] The cells were then incubated for 30 minutes at 37° C. and 5% CO2. Stimulation occurred during 3 minutes by addition of 20 μl MIP1α (final 10 ng/ml, diluted in HBSS) in the incubator. Wells 24 A-H were only stimulated with HBSS.
The stimulation was then stopped by putting the cell plates on ice (filled with cold water). The cells were then centrifuged at 1200 rpm and 4° C. for 3 minutes.
80 μl of supernatant was removed. The cells were again centrifuged at 1200 rpm and 4° C. for 3 minutes. The supernatant was then removed by turning plates upside down and 30 μl of lysis buffer were added. The plate was incubated at room temperature for 30 minutes under shaking. 16 μl were then transferred to a ProxiPlate Plus 384-well. 4 μl of the master mix (each conjugate diluted 1:20 with detection reagent) were added to each well and the plate was kept in the dark at room temperature for 4 hours.

PI 3-kinase gamma [3] = biological target: T2, PI 3-kinase gamma; experiment: Cellular U937 AKT assay K1 (MSD); assay type: cell-based; conditions: U937 cells, K1 format; read-out: Assay K1 PI3Kγ IC50
PI 3-kinase alpha [4] = biological target: T3, PI 3-kinase alpha (Homo sapiens, UniProt P42336); experiment: Kinase Glo Luminescent Kinase Assay (Kglo), assay A; assay type: biochemical; conditions: read-out: Assay A PI3Kα IC50
[5] = test system: IL-8-induced neutrophil shape change in human whole blood; experiment: Whole blood neutrophil shape change assay (L); assay type: cell-based; conditions: IL-8, human whole blood, read-out: Assay L WBSC IC50
Procedure: Whole Blood Neutrophil Shape Change Assay (L)
IL-8 was made up to 2 μM stocks in 0.1% bovine serum albumin/PBS and stored at −80° C. On the day IL-8 was diluted in PBS (phosphate buffered saline) 10 minutes before use. IL-8 was used at final concentration of 2 nM and a concentration range from 0.003 to 200 nM for the donor dose response curve.
Assay fixative solution was prepared fresh each day from 10× concentrated CellFIX™ solution diluted 1:10 in sterile distilled water and then 1:4 with PBS. Assay fixative solution was kept on ice prior to use.
A 10× lysis buffer was prepared in advance by dissolving 20.75 g NH4Cl and 2.5 g KHCO3 in 250 ml sterile H2O. This 10× lysis buffer was filtered under sterile conditions and stored for up to two weeks at 4° C. On the day a 1× lysis solution was prepared with sterile distilled H2O and kept on ice prior to use.
The test compounds were prepared as 10 mM stock solutions in 100% DMSO and were stored at 4° C. Once in use for an assay 10 mM stock compounds were thawed and stored at RT protected from light. Compound dilutions were prepared fresh on the day. The first series of dilutions in 100% DMSO were done first thing in the morning. Only once blood had been collected and arrived in laboratory was the next set of dilutions into PBS carried out (1:10 PBS, 10% DMSO). This limited the exposure of diluted compound to plastic and made sure the exposure timing was consistent between assays.
Compound dilutions in 100% DMSO were prepared as described previously. Human whole blood was collected in K2 EDTA Vacutainers. Once blood was in the laboratory, compound dilutions into PBS were carried out as described previously and depicted in Table 1.
The outer wells of the deep well assay plate were filled with 1200 μl of sterile distilled H2O in an effort to limit edge effects (rows A1-H1, A1-A12, A12-H12).
An IL-8 dose response was determined for each blood donor examined, to monitor the donor response to IL-8. At this step in assay preparation for the IL-8 dose response samples 10 μl of PBS was added to designated wells. In addition the assay window without DMSO was also assessed each day. For such samples at this step in assay preparation 10 μl of PBS was added in the place of 10% DMSO.
Lids were placed on the 96 well plates and samples were incubated for 15 minutes at 37° C. in a water-bath.
Following the compound pre-incubation 10× final IL-8 was added to appropriate wells (10 μl of 20 nM working stock IL-8, final IL-8 concentration in blood=2 nM) and 10 μl of PBS was added to the un-stimulated controls. 10× final dose response range IL-8 was also added to designated wells (final concentration range on assay plate was 200 nM to 0.0005 nM, 1:5 serial dilution in PBS). The IL-8 and PBS were added to appropriate wells across all assay plates in the same sequence as the blood to compound addition. […] Samples were incubated for 5 minutes at 37° C. in a water-bath. Following the incubation sample plates were transferred to ice where 250 μl of chilled Assay Fixative Buffer was added promptly to all wells.
Samples were incubated on ice for 7 minutes (no mixing). […] Once added samples were mixed once and incubated on ice for 30 minutes to achieve uniform red blood cells lysis. After lysis, 200 μl of sample was transferred to a 96 well microplate on ice. […] Granulocytes were identified based on differential side scatter (SSC) and forward scatter (FSC) characteristics.

[6] = Microsomal clearance assay (M); conditions: intrinsic clearance in rat liver microsomes
Procedure: The experiments were performed in 96-well glass plates at 37° C. on an automated Tecan EVO platform. Test compounds at a concentration of 10 mM in pure DMSO were diluted 1:1000 in water to 10 μM. […] Reactions were initiated by the addition of 150 μL of a cofactor solution containing 2 mM NADPH.

PI 3-kinase delta [7] = biological target: T4, PI 3-kinase delta (Homo sapiens, UniProt O00329); experiment: TR-FRET Adapta assay, assay F; conditions: read-out: Assay F PI3Kδ IC50
Target sequence in this assay (O00329 whole entry): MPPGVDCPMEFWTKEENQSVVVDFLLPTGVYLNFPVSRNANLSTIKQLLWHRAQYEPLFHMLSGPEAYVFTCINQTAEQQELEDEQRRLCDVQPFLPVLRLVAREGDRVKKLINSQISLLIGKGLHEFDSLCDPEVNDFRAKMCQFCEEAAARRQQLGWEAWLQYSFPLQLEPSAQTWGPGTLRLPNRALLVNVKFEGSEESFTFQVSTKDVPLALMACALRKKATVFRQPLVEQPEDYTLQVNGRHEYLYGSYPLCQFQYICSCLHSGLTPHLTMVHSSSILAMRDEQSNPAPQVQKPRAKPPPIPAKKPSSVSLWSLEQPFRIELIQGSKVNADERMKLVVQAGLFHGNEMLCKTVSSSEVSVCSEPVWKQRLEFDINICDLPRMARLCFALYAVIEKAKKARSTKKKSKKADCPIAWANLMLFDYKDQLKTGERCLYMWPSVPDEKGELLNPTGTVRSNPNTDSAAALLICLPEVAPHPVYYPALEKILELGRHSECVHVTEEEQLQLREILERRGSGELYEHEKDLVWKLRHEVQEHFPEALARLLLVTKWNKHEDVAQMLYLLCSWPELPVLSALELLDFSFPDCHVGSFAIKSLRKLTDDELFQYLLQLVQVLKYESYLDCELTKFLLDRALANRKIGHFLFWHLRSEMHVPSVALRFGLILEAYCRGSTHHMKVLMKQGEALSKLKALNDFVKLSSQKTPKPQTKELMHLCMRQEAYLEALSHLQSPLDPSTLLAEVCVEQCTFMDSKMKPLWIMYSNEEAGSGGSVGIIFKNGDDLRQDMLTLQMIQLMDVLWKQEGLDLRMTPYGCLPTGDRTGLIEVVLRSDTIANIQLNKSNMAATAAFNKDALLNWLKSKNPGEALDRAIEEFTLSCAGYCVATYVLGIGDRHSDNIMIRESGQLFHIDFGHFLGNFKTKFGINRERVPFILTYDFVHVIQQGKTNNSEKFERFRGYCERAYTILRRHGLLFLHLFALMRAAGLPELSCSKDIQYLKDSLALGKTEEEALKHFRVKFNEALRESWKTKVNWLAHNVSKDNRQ
Target sequence in this assay (P27986 461-568 partner): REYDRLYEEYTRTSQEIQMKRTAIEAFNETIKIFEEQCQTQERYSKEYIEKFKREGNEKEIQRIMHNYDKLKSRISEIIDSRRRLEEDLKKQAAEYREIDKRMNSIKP

PI 4-kinase beta = PI 4-kinase beta (Homo sapiens, UniProt Q9UBF8); experiment: Kinase Glo Luminescent Kinase Assay (Kglo), assay D; assay type: biochemical; conditions: read-out: Assay D PI4Kβ IC50
Procedure: Kinase Glo Luminescent Kinase Assay (Kglo) for Pb 3-Kinase Alpha (A), Pb 3-Kinase Beta (B), Vps34 (C), Pb 4-Kinase Beta (D)
The Kinase Glo Luminescent Kinase Assay (Promega, Madison/Wis., USA) is a homogeneous HTS method of measuring kinase activity by quantifying the amount of ATP remaining in solution following a kinase reaction.
L-α-phosphatidylinositol (PI), provided as 10 mg/ml solution in methanol, was transferred into a glass tube and dried under a nitrogen beam. It was then resuspended in 3% OctylGlucoside (1-0-n-octyl-beta-D-glucopyranoside) by vortexing and stored at 4° C. 5 μL of a mix of PI/OctylGlucoside with the PI 3-kinase alpha and PI 3-kinase beta subtypes, or Vps34 or PI 4-kinase beta were added. Kinase reactions were started by the addition of 5 μl of an ATP-mix containing in a final volume 10 μL 10 mM TRIS-HCl pH 7.5, 3 mM MgCl2, 50 mM NaCl, 0.05% CHAPS, 1 mM DTT and 1 μM ATP at room temperature.
All fits were performed with the program XLfit4 (ID Business Solutions, Guildford, UK).

mTOR = mTOR (Homo sapiens, UniProt P42345); experiment: Lanthascreen kinase binding assay, assay G; conditions: read-out: Assay G mTOR IC50
Procedure: Lanthascreen™ Kinase Binding Assay for mTOR (G)
Binding of an inhibitor to the kinase competes for binding with the tracer, resulting in a loss of FRET.
50 nL of compound dilutions were dispensed onto white 384-well small volume polystyrene plate.

PI 3-kinase gamma [8] = biological target: T2, PI 3-kinase gamma; experiment: TR-FRET Adapta assay, assay E; assay type: biochemical; conditions: read-out: Assay E PI3Kγ IC50
PI 3-kinase delta [9] = biological target: T4, PI 3-kinase delta; experiment: Cellular assay J1, p-Akt (S473) in Rat-1 cells, Surefire format; assay type: cell-based; conditions: non-asterisked data: version J1 (Surefire format), Rat-1 cells; read-out: Assay J PI3Kδ IC50
Target sequence in this assay (O00329 whole entry): as the sequence (O00329 whole entry) above
Target sequence in this assay (Q63787 whole entry partner): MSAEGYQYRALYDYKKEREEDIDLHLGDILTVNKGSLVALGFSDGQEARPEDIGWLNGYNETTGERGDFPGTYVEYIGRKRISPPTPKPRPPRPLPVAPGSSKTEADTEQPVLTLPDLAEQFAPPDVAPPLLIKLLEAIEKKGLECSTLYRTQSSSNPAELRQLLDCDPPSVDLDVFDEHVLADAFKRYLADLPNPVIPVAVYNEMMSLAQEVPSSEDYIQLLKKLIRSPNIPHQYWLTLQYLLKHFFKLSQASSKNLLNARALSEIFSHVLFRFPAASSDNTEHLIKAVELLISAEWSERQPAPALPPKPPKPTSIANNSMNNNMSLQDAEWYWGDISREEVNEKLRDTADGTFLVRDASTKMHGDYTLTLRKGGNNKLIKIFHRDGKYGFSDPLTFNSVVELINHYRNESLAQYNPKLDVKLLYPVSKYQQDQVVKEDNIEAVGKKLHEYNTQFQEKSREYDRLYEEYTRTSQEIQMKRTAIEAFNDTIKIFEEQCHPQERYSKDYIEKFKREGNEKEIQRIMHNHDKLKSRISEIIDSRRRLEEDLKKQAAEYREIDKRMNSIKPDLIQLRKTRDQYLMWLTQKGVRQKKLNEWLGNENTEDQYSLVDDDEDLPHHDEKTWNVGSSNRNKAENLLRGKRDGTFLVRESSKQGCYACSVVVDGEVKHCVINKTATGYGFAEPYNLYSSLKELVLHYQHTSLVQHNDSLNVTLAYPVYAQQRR

PI 3-kinase beta [10] = biological target: T1, PI 3-kinase beta; experiment: Cellular assay I1, p-Akt (S473) in Rat-1 cells, Surefire format; assay type: cell-based; conditions: non-asterisked data: version I1 (Surefire format), Rat-1 cells; read-out: Assay I PI3Kβ IC50
PI 3-kinase alpha [11] = biological target: T3, PI 3-kinase alpha; experiment: Cellular assay H1, p-Akt (S473) in Rat-1 cells, Surefire format; assay type: cell-based; conditions: non-asterisked data: version H1 (Surefire format), Rat-1 cells; read-out: Assay H PI3Kα IC50
Source text: Cellular Assays for PI 3-Kinase Alpha (H1), Beta (I1) and Delta (J1): Surefire Format
AlphaScreen (Amplified Luminescent Proximity Homogeneous Assay, ALPHA, Perkin Elmer) is a non-radioactive bead-based proximity assay technology to study biomolecular interactions in a homogenous microtiter plate format. The brand name SureFire denotes AlphaScreen assays that are adapted to quantify the phosphorylation of endogenous cellular proteins in cell lysates, by using matched antibody pairs, which consist of an anti-phospho-kinase and an anti-kinase antibody. The assay allows characterization of kinase signaling in cells as well as measurement of kinase inhibitor effects.
Using Rat-1 cells stably expressing myr-HA-tagged versions of the human PI3Kdelta, PI3Kalpha, or PI3Kbeta p110 catalytic subunit isoforms, the assay was developed as a two-plate protocol in a 384-well format.
For compound testing, the cells were seeded at a density of 4000 (Rat-1_PI3Kdelta), 7500 (Rat-1_PI3Kalpha), or 6200 (Rat-1_PI3Kbeta) cells in 20 μl complete growth medium into cell culture treated 384-well plates and were grown at 37° C./5% CO2/90% humidity for 24 h. Shortly before compound transfer, the complete medium was removed, 30 μl assay buffer (DMEM high glucose, 1×MEM NEAA, 10 mM HEPES, 2 mM L-glutamine, 0.1% (w/v) BSA) was added and 10 μl of the compound predilutions were transferred to the cells.

T2 sequence (P48736 whole entry): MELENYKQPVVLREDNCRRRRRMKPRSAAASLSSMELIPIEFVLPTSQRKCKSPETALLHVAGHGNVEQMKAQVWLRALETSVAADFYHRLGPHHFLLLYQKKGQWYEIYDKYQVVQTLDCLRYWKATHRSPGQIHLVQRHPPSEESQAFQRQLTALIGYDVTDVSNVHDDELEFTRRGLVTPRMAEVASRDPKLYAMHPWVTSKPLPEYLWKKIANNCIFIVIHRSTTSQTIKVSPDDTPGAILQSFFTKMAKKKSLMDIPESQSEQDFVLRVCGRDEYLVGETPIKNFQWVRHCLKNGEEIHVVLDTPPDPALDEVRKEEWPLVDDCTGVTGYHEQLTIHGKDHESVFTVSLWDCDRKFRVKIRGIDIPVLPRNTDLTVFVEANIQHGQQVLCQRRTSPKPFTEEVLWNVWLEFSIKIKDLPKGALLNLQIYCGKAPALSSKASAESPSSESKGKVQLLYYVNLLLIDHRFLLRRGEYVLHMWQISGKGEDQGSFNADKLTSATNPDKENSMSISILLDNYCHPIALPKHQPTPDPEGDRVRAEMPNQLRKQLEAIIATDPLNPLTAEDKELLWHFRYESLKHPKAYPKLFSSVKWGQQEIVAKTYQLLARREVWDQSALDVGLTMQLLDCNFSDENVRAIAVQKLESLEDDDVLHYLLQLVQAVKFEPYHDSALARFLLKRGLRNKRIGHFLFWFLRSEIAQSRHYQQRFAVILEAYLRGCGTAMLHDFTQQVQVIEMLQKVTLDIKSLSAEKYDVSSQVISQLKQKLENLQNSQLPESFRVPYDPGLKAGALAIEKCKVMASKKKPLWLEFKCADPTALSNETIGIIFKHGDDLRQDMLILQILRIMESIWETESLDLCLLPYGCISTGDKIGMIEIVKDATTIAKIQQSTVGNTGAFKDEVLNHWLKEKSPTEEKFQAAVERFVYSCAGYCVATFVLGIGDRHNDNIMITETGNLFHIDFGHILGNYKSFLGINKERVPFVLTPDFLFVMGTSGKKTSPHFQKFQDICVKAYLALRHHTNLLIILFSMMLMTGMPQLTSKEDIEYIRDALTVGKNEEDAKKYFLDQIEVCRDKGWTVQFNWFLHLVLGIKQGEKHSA
PI 4-kinase beta, sequence (Q9UBF8 whole entry): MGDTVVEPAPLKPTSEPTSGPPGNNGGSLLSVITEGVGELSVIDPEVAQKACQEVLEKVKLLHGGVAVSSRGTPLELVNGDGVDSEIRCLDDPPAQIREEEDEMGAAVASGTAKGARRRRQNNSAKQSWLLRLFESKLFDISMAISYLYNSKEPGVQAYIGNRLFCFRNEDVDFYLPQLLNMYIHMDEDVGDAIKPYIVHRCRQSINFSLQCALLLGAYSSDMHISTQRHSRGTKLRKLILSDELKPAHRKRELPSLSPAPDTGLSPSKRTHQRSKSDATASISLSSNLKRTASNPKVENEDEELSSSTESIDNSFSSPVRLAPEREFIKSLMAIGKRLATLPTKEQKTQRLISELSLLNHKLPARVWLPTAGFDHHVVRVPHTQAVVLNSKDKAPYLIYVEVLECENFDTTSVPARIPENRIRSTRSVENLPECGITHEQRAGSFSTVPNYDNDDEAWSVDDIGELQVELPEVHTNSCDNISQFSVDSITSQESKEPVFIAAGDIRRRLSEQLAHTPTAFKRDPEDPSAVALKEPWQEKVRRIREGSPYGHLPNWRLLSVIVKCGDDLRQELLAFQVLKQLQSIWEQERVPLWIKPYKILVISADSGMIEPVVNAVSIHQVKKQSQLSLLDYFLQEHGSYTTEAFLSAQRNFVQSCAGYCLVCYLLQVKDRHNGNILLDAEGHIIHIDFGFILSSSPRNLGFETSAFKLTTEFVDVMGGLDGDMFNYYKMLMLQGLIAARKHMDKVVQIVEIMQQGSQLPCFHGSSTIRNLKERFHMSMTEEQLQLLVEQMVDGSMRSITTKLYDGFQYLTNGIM
Vps34, sequence (Q8NEB9 whole entry, species assumed): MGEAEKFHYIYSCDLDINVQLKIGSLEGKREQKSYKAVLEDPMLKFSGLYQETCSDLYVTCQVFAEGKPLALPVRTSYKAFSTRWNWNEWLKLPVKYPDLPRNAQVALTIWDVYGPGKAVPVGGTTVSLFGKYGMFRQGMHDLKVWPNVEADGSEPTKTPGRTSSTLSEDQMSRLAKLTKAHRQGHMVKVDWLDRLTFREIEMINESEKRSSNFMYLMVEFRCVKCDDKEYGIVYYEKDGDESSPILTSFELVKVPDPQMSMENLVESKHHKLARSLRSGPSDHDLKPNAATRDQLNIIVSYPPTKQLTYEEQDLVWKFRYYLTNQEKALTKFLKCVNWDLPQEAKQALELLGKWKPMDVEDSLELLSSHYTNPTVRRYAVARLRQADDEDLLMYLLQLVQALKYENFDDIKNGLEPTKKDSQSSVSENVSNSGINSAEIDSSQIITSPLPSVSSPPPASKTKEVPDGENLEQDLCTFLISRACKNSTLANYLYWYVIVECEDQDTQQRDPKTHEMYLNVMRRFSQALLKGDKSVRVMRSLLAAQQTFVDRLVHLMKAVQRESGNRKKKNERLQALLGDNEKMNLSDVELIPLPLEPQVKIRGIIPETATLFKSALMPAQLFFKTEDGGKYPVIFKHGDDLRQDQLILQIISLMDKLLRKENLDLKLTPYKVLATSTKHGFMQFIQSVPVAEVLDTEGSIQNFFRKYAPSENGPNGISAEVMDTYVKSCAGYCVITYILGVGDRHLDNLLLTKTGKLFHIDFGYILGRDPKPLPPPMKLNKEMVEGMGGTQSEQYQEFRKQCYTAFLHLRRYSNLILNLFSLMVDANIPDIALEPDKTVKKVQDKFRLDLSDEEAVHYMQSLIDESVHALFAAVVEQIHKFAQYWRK

| IC50 (Vps34) | IC50 (PI 3-kinase beta [1]) | IC50 (PI 3-kinase gamma [2]) | IC50 (PI 3-kinase gamma [3]) | IC50 (PI 3-kinase alpha [4]) | IC50 ([5]; Homo sapiens, Neutrophil) | Assay M RLM CI(int) [6] | IC50 (PI 3-kinase delta [7]) | IC50 (PI 4-kinase beta) | IC50 (mTOR) | IC50 (PI 3-kinase gamma [8]) | IC50 (PI 3-kinase delta [9]) | IC50 (PI 3-kinase beta [10]) | IC50 (PI 3-kinase alpha [11]) | Structure (SMILES) | IC50 [5] |
| --- | --- | --- | --- | --- | --- | --- | --- | --- | --- | --- | --- | --- | --- | --- | --- |
| > 9100 nM | > 9100 nM | 546 nM | 708 nM | 1300 nM | 3770 nM | 34 µL/min/mg | 720 nM | 6900 nM | > 9100 nM | 73 nM |  |  |  | Cc1ccc(S(=O)(=O)N2CC(C)(O)C2)cc1-c1cnc(N)c(-n2cncn2)n1 [Example 127.46] |  |
| > 10000 nM | 1400 nM | 408 nM | 230 nM | 650 nM | 6220 nM |  | 1500 nM | 8000 nM | > 10000 nM | 34 nM |  |  |  | Cc1ccc(S(=O)(=O)NCCC2(O)CCCCC2)cc1-c1cnc(N)c(-n2cncn2)n1 [Example 127.37] |  |
| > 10000 nM | 1000 nM | 84 nM | 850 nM | 320 nM | 3560 nM | 375 µL/min/mg | 850 nM | 1700 nM | 9400 nM | 73 nM |  |  |  | Cc1ccc(S(=O)(=O)N2CCC(F)C2)cc1-c1cnc(N)c(-n2cncn2)n1 (stereo not drawn) [Example 127.2] |  |
| > 10000 nM | 1700 nM | 280 nM | 104 nM | 100 nM |  | 134 µL/min/mg | 500 nM | > 10000 nM |  | 45 nM | 780 nM | 1550 nM | 1510 nM | Cc1ccc(S(=O)(=O)NCC2(C)CCCO2)cc1-c1cnc(N)c(-c2cn(C)nc2C)n1 (stereo not drawn) [Example 128.4, 3-(5-Amino-6-(1,3-dimethyl-1H-pyrazol-4-yl)pyrazin-2-yl)-4-methyl-N-((2-methyltetrahydrofuran-2-yl)methyl)benzenesulfonamide] |  |
| > 10000 nM | 7700 nM | 193 nM |  | 190 nM | 2180 nM | 20 µL/min/mg | 300 nM | > 10000 nM |  | 190 nM | > 10000 nM | > 10000 nM | > 10000 nM | Cc1ccc(S(=O)(=O)NC[C@@H]2COCCN2)cc1-c1cnc(N)c(-c2cn(C)nc2C)n1 [Example 128.6, (R)-3-(5-Amino-6-(1,3-dimethyl-1H-pyrazol-4-yl)pyrazin-2-yl)-4-methyl-N-(morpholin-3-ylmethyl)benzenesulfonamide] |  |
| > 9100 nM | 6200 nM | 323 nM |  | 420 nM | 2640 nM | 26 µL/min/mg | 1500 nM | 3400 nM | > 9100 nM | 60 nM | 7270 nM | 9050 nM | 6110 nM | Cc1ccc(S(=O)(=O)N2CC(CO)C2)cc1-c1cnc(N)c(-n2cncn2)n1 [Example 127.45] |  |
| > 10000 nM | 3100 nM | 419 nM |  | 400 nM | 9680 nM | 72 µL/min/mg | 3900 nM | > 10000 nM | 1800 nM | 100 nM |  |  |  | Cc1ccc(S(=O)(=O)N2CC(F)C2)cc1-c1cnc(N)c(-n2cncn2)n1 [Example 127.5] |  |
| > 9100 nM | > 9100 nM | 1600 nM | 804 nM | 1200 nM |  | 99 µL/min/mg | 910 nM | > 9100 nM | 8700 nM | 58 nM | 4970 nM | > 10000 nM | 4290 nM | Cc1cc(-c2nc(-c3cc(S(=O)(=O)NC[C@H]4CCCO4)ccc3C)cnc2N)ccn1 [Example 129.12, (R)-3-(5-amino-6-(2-methylpyridin-4-yl)pyrazin-2-yl)-4-methyl-N-((tetrahydrofuran-2-yl)methyl)benzenesulfonamide] |  |

Continued, molecule first:

| Structure (SMILES) | IC50 (Vps34) | IC50 (PI 3-kinase beta [1]) | IC50 (PI 3-kinase gamma [2]) | IC50 (PI 3-kinase gamma [3]) | IC50 (PI 3-kinase alpha [4]) | IC50 ([5]; Homo sapiens, Neutrophil) | Assay M RLM CI(int) [6] | IC50 (PI 3-kinase delta [7]) | IC50 (PI 4-kinase beta) | IC50 (mTOR) | IC50 (PI 3-kinase gamma [8]) | IC50 (PI 3-kinase delta [9]) | IC50 (PI 3-kinase beta [10]) | IC50 (PI 3-kinase alpha [11]) | IC50 [5] |
| --- | --- | --- | --- | --- | --- | --- | --- | --- | --- | --- | --- | --- | --- | --- | --- |
| Cc1ccc(S(=O)(=O)NCCC(C)(C)O)cc1-c1cnc(N)c(-c2cnn(C)n2)n1 [Example 85, 3-(5-Amino-6-(2-methyl-2H-1,2,3-triazol-4-yl)pyrazin-2-yl)-N-(3-hydroxy-3-methylbutyl)-4-methylbenzenesulfonamide] | > 10000 nM | 1200 nM | 65 nM | 41 nM | 90 nM | 497 nM | 73 µL/min/mg | 120 nM | > 10000 nM | 7900 nM | 21 nM |  |  |  |  |
| Cc1ncc(-c2nc(-c3cc(S(=O)(=O)NC[C@H]4CCOC4)ccc3C)cnc2N)s1 [Example 42, (R)-3-(5-Amino-6-(2-methylthiazol-5-yl)pyrazin-2-yl)-4-methyl-N-((tetrahydrofuran-3-yl)methyl)benzenesulfonamide] | 4650 nM | 660 nM | 18 nM | 14 nM | 30 nM |  | 160 µL/min/mg | 30 nM | 3500 nM |  | 7 nM | 160 nM | 790 nM | 130 nM |  |
| Cc1ncc(-c2nc(-c3cc(S(=O)(=O)NCC4(O)CCOCC4)ccc3C)cnc2N)s1 [Example 45.10, 3-(5-Amino-6-(2-methylthiazol-5-yl)pyrazin-2-yl)-N-((4-hydroxytetrahydro-2H-pyran-4-yl)methyl)-4-methylbenzenesulfonamide] | 3900 nM | 340 nM | 30 nM |  | 20 nM | 662 nM | 32 µL/min/mg | 150 nM | 1900 nM |  | 10 nM |  |  |  |  |
| CCN1CCC[C@@H]1CNS(=O)(=O)c1ccc(C)c(-c2cnc(N)c(-c3cnc(C)s3)n2)c1 [Example 41, (R)-3-(5-Amino-6-(2-methylthiazol-5-yl)pyrazin-2-yl)-N-((1-ethylpyrrolidin-2-yl)methyl)-4-methylbenzenesulfonamide] | 7700 nM | 250 nM | 24 nM | 39 nM | 110 nM |  | 314 µL/min/mg | 20 nM | 9400 nM |  | 10 nM | < 3 nM | 980 nM | > 3000 nM |  |
| Cc1ccc(S(=O)(=O)NCC(C)(C)O)cc1-c1cnc(N)c(-c2cnn(C)c2C)n1 [Example 46, 3-(5-Amino-6-(1,5-dimethyl-1H-pyrazol-4-yl)pyrazin-2-yl)-N-(2-hydroxy-2-methylpropyl)-4-methylbenzenesulfonamide] | > 10000 nM | 820 nM | 331 nM | 145 nM | 220 nM | 730 nM | 24 µL/min/mg | 450 nM | > 10000 nM | > 10000 nM | 26 nM |  |  |  |  |
| Cc1ccc(S(=O)(=O)NCC[C@@H](O)C(F)(F)F)cc1-c1cnc(N)c(-c2cn(C)nc2C)n1 (single isomer, unassigned) [Example 52b, (R)-3-(5-Amino-6-(1,3-dimethyl-1H-pyrazol-4-yl)pyrazin-2-yl)-4-methyl-N-(4,4,4-trifluoro-3-hydroxybutyl)benzenesulfonamide or (S)-3-(5-Amino-6-(1,3-dimethyl-1H-pyrazol-4-yl)pyrazin-2-yl)-4-methyl-N-(4,4,4-trifluoro-3-hydroxybutyl)benzenesulfonamide] | > 10000 nM |  | 337 nM | 60 nM | 230 nM |  | 43 µL/min/mg |  | 4200 nM |  | 26 nM |  |  |  | 550 nM |
| Cc1ncc(-c2nc(-c3cc(S(=O)(=O)NCC4(O)COC4)ccc3C)cnc2N)s1 [Example 45.11, 3-(5-Amino-6-(2-methylthiazol-5-yl)pyrazin-2-yl)-N-((3-hydroxyoxetan-3-yl)methyl)-4-methylbenzenesulfonamide] | 1600 nM | 290 nM | 26 nM | 12 nM | 40 nM | 79 nM | 43 µL/min/mg | 130 nM | 1200 nM |  | 5 nM |  |  |  |  |
